From ChEMBL document CHEMBL3797052 (Eur J Med Chem, 2016)

Experiments:
[1] = tested on: CCRF-CEM; test: Antiproliferative activity against human CCRF-CEM cells assessed as cell growth at 10^-4 M after 48 hrs by sulforhodamine B assay; format: functional; settings: read-out: Activity
[2] = tested on: M14; test: Antiproliferative activity against human M14 cells assessed as cell growth at 10^-6 M after 48 hrs by sulforhodamine B assay; format: functional; settings: M14, 48 h, read-out: Activity
[3] = target: RAF proto-oncogene serine/threonine-protein kinase (Homo sapiens, UniProt P04049); test: Inhibition of human CRAF at 10 uM measured after 40 mins by scintillation counting
[4] = Antiproliferative activity against human OVCAR3 cells assessed as cell growth at 10^-4 M after 48 hrs by sulforhodamine B assay; format: functional; settings: OVCAR-3, 48 h, read-out: Activity
[5] = Antiproliferative activity against human RXF393 cells assessed as cell growth at 10^-8 M after 48 hrs by sulforhodamine B assay; format: functional; settings: RXF 393, 48 h, read-out: Activity
[6] = Antiproliferative activity against human OVCAR8 cells assessed as cell growth at 10^-7 M after 48 hrs by sulforhodamine B assay; format: functional; settings: OVCAR-8, 48 h, read-out: Activity
[7] = tested on: NCI-H522; test: Antiproliferative activity against human NCI-H522 cells assessed as cell growth at 10^-6 M after 48 hrs by sulforhodamine B assay; format: functional; settings: NCI-H522, 48 h, read-out: Activity
[8] = Antiproliferative activity against human HL-60(TB) cells assessed as cell growth at 10^-6 M after 48 hrs by sulforhodamine B assay; format: functional; settings: HL-60, 48 h, read-out: Activity
[9] = tested on: SK-MEL-2; test: Antiproliferative activity against human SK-MEL-2 cells assessed as growth inhibition after 48 hrs by sulforhodamine B assay; format: functional; settings: SK-MEL-2, 48 h; for CC50: read-out: LC50 (the source's name)
[10] = tested on: NCI-H226; test: Antiproliferative activity against human NCI-H226 cells assessed as cell growth at 10^-7 M after 48 hrs by sulforhodamine B assay; format: functional; settings: NCI-H226, 48 h, read-out: Activity
[11] = Antiproliferative activity against human Hs 578T cells assessed as cell growth at 10^-7 M after 48 hrs by sulforhodamine B assay; format: functional; settings: read-out: Activity
[12] = tested on: SK-MEL-2; test: Antiproliferative activity against human SK-MEL-2 cells assessed as cell growth at 10^-7 M after 48 hrs by sulforhodamine B assay; format: functional; settings: SK-MEL-2, 48 h, read-out: Activity
[13] = tested on: M14; test: Antiproliferative activity against human M14 cells assessed as growth inhibition after 48 hrs by sulforhodamine B assay; format: functional; settings: M14, 48 h; for CC50: read-out: LC50 (the source's name)
[14] = Antiproliferative activity against human OVCAR3 cells assessed as cell growth at 10^-6 M after 48 hrs by sulforhodamine B assay; format: functional; settings: OVCAR-3, 48 h, read-out: Activity
[15] = Antiproliferative activity against human SNB75 cells assessed as growth inhibition after 48 hrs by sulforhodamine B assay; format: functional; settings: SNB-75, 48 h; for CC50: read-out: LC50 (the source's name)
[16] = tested on: A498; test: Antiproliferative activity against human A498 cells assessed as cell growth at 10^-4 M after 48 hrs by sulforhodamine B assay; format: functional; settings: A498, 48 h, read-out: Activity
[17] = Antiproliferative activity against human SNB75 cells assessed as cell growth at 10^-4 M after 48 hrs by sulforhodamine B assay; format: functional; settings: SNB-75, 48 h, read-out: Activity
[18] = Antiproliferative activity against human HOP92 cells assessed as cell growth at 10^-8 M after 48 hrs by sulforhodamine B assay; format: functional; settings: HOP-92, 48 h, read-out: Activity
[19] = Antiproliferative activity against human LOXIMVI cells assessed as cell growth at 10^-8 M after 48 hrs by sulforhodamine B assay; format: functional; settings: LOX IMVI, read-out: Activity
[20] = Antiproliferative activity against human HOP92 cells assessed as growth inhibition after 48 hrs by sulforhodamine B assay; format: functional; settings: HOP-92, 48 h
[21] = Antiproliferative activity against human TK10 cells assessed as cell growth at 10^-4 M after 48 hrs by sulforhodamine B assay; format: functional; settings: TK-10, 48 h, read-out: Activity
[22] = tested on: MDA-MB-468; test: Antiproliferative activity against human MDA-MB-468 cells assessed as growth inhibition after 48 hrs by sulforhodamine B assay; format: functional; settings: MDA-MB-468, 48 h; for CC50: read-out: LC50 (the source's name)
[23] = Antiproliferative activity against human UO31 cells assessed as growth inhibition after 48 hrs by sulforhodamine B assay; format: functional; settings: UO-31, 48 h
[24] = Antiproliferative activity against human OVCAR3 cells assessed as growth inhibition after 48 hrs by sulforhodamine B assay; format: functional; settings: OVCAR-3, 48 h
[25] = Antiproliferative activity against human OVCAR8 cells assessed as cell growth at 10^-6 M after 48 hrs by sulforhodamine B assay; format: functional; settings: OVCAR-8, 48 h, read-out: Activity
[26] = Antiproliferative activity against human SF539 cells assessed as cell growth at 10^-8 M after 48 hrs by sulforhodamine B assay; format: functional; settings: SF-539, 48 h, read-out: Activity
[27] = Antiproliferative activity against human DU145 cells assessed as growth inhibition after 48 hrs by sulforhodamine B assay; format: functional; settings: DU-145, 48 h; for CC50: read-out: LC50 (the source's name)
[28] = Antiproliferative activity against human UACC257 cells assessed as cell growth at 10^-8 M after 48 hrs by sulforhodamine B assay; format: functional; settings: UACC-257, 48 h, read-out: Activity
[29] = tested on: NCI-H322M; test: Antiproliferative activity against human NCI-H322M cells assessed as cell growth at 10^-8 M after 48 hrs by sulforhodamine B assay; format: functional; settings: read-out: Activity
[30] = Antiproliferative activity against human HOP62 cells assessed as growth inhibition after 48 hrs by sulforhodamine B assay; format: functional; settings: HOP-62, 48 h
[31] = Antiproliferative activity against human OVCAR8 cells assessed as cell growth at 10^-8 M after 48 hrs by sulforhodamine B assay; format: functional; settings: OVCAR-8, 48 h, read-out: Activity
[32] = tested on: SK-MEL-5; test: Antiproliferative activity against human SK-MEL-5 cells assessed as cell growth at 10^-6 M after 48 hrs by sulforhodamine B assay; format: functional; settings: SK-MEL-5, 48 h, read-out: Activity
[33] = Antiproliferative activity against human MOLT4 cells assessed as cell growth at 10^-4 M after 48 hrs by sulforhodamine B assay; format: functional; settings: MOLT-4, 48 h, read-out: Activity
[34] = tested on: SK-MEL-28; test: Antiproliferative activity against human SK-MEL-28 cells assessed as growth inhibition after 48 hrs by sulforhodamine B assay; format: functional; settings: SK-MEL-28, 48 h
[35] = tested on: MCF7; test: Antiproliferative activity against human MCF7 cells assessed as cell growth at 10^-4 M after 48 hrs by sulforhodamine B assay; format: functional; settings: MCF7, 48 h, read-out: Activity
[36] = read-out: LC50 (the source's name)

Sequence of RAF proto-oncogene serine/threonine-protein kinase (P04049 whole entry): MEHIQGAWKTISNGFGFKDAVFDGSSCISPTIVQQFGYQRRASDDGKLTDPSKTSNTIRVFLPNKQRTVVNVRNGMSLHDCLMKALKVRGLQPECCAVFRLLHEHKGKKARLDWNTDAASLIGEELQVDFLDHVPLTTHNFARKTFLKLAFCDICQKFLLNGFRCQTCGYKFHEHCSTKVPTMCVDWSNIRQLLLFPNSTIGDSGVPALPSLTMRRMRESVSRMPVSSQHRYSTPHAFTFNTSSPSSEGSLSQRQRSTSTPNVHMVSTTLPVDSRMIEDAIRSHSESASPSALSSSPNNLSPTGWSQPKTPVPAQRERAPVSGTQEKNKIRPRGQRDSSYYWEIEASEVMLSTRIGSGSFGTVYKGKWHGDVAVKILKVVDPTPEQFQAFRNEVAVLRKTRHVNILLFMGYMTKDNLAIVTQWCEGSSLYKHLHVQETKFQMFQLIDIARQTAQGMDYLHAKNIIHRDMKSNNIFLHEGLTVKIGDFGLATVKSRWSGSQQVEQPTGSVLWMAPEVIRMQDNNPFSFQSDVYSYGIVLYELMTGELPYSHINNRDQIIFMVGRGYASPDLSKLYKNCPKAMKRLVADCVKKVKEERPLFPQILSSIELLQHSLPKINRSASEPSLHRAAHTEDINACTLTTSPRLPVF

With `CNC(=O)c1cc(Oc2ccc3nc(NC(=O)Nc4ccc(Cl)c(C(F)(F)F)c4)sc3c2)ccn1` the growth at 100 µM [1] was 53%, the growth at 1 µM [2] was 83% and the inhibition [3] was 94.8%. The growth at 100 µM [4] was -14%, the growth at 0.01 µM [5] was 87% and the growth at 0.1 µM [6] was 108%. For the same compound, the growth at 1 µM [7] was 80%, the growth at 1 µM [8] was 96% and the GI50 [9] was 5.69 µM. It also gave a TGI [9] of 47 µM, a CC50 [9] of over 100 µM and a growth at 0.1 µM [10] of 99%. It also gave a growth at 0.1 µM [11] of 89%, a growth at 0.1 µM [12] of 99% and a GI50 [13] of 1.96 µM. The CC50 [13] was over 100 µM, the growth at 1 µM [14] was 108% and the GI50 [15] was 1.52 µM. The TGI [15] was 3.24 µM, the CC50 [15] was 6.88 µM and the growth at 100 µM [16] was -40%. It also gave a growth at 100 µM [17] of -80%, a growth at 0.01 µM [18] of 85% and a growth at 0.01 µM [19] of 99%. The GI50 [20] was 1.15 µM, the LC50 [20] was 9.12 µM and the TGI [20] was 3.24 µM. For the same compound, the growth at 100 µM [21] was -62%, the GI50 [22] was 1.36 µM and the TGI [22] was 4.1 µM. It also gave a CC50 [22] of over 100 µM, a GI50 [23] of 2.17 µM and a GI50 [24] of 2.11 µM. It also gave a TGI [24] of 4.02 µM, a growth at 1 µM [25] of 103% and a growth at 0.01 µM [26] of 97%. For the same compound, the GI50 [27] was 2.24 µM, the CC50 [27] was over 100 µM and the growth at 0.01 µM [28] was 102%. It also gave a growth at 0.01 µM [29] of 101%, a GI50 [30] of 1.94 µM and an LC50 [30] of over 100 µM. It also gave a TGI [30] of 4.74 µM, a growth at 0.01 µM [31] of 105% and a growth at 1 µM [32] of 87%. It also gave a growth at 100 µM [33] of 55% and a GI50 [34] of 1.56 µM.

`CNC(=O)c1cc(Oc2ccc3nc(NC(=O)c4cc(C(F)(F)F)cc(C(F)(F)F)c4)sc3c2)ccn1` gave a growth at 100 µM [1] of 25%, a growth at 1 µM [2] of 94% and a growth at 100 µM [4] of -79%. The growth at 0.01 µM [5] was 95%, the growth at 0.1 µM [6] was 102% and the growth at 1 µM [7] was 96%. It also gave a growth at 1 µM [8] of 114%, a GI50 [9] of 2.32 µM and a TGI [9] of 6.7 µM. It also gave a CC50 [9] of 81.6 µM, a growth at 0.1 µM [10] of 99% and a growth at 0.1 µM [11] of 93%. It also gave a growth at 0.1 µM [12] of 97%, a GI50 [13] of 3.61 µM and a TGI [13] of 19.5 µM. It also gave a CC50 [13] of over 100 µM, a growth at 1 µM [14] of 90% and a GI50 [15] of 3.13 µM. For the same compound, the TGI [15] was 14.8 µM, the CC50 [15] was 96.5 µM and the growth at 100 µM [16] was -65%. It also gave a growth at 100 µM [17] of -51%, a growth at 0.01 µM [18] of 91% and a growth at 0.01 µM [19] of 97%. It also gave a GI50 [20] of 1.68 µM, an LC50 [20] of over 100 µM and a TGI [20] of 7.21 µM. For the same compound, the growth at 100 µM [21] was -58%, the GI50 [22] was 3.18 µM and the TGI [22] was 14.2 µM. It also gave a CC50 [22] of over 100 µM, a GI50 [23] of 2.19 µM and a TGI [23] of 8.95 µM. For the same compound, the CC50 [23, 36] was 97 µM, the GI50 [24] was 2.32 µM and the LC50 [24] was 32.3 µM. It also gave a TGI [24] of 6.64 µM, a growth at 1 µM [25] of 90% and a growth at 0.01 µM [26] of 101%. The GI50 [27] was 3.69 µM, the TGI [27] was 15.9 µM and the CC50 [27] was 65 µM. For the same compound, the growth at 0.01 µM [28] was 87%, the growth at 100 µM [35] was -49% and the growth at 0.01 µM [29] was 91%. It also gave a GI50 [30] of 3.36 µM, an LC50 [30] of 51.6 µM and a TGI [30] of 10.8 µM. For the same compound, the growth at 0.01 µM [31] was 97%, the growth at 1 µM [32] was 83% and the growth at 100 µM [33] was -7%. The GI50 [34] was 3.76 µM, the TGI [34] was 43.7 µM and the CC50 [34, 36] was over 100 µM.
